pEC50: −log10 of the molar value. “And” between values parts separate entries of the source, which are not always exact repeats. Equal values may be shown once.
Experiments:
[1] = test system: replicon cell line containing H/FL-Neo (genotype 1a (H77), full length construct); assay: Secondary anti-HCV assay: genotype 1a replicon, format of the primary assay; format: cell-based; settings: Hepatitis C virus
Description: Res. 19:55; Okuse, et al., 2005, Antivir. Res. 65:23).
Secondary anti-HCV assay—This assay assesses activity against different HCV genotypes using the format described for the primary assay. Activity against the genotype 1b HCV is included for comparison. Currently available is a replicon cell line containing H/FL-Neo (genotype 1a (H77), full length construct) (Blight, et al., 2003, J. Virol. 77:3181).

[2] = Cytotoxicity by neutral red dye uptake in replicon cultures in parallel plates; settings: human
Experimental: (§1) Primary anti-HCV assay-Antiviral activity against HCV was assessed in a 3-day assay (Okuse, et al., 2005; Antiviral. Res. 65:23; Korba, et al., 2008, Antiviral Res. 77:56) using the stably-expressing HCV replicon cell line, AVA5 [sub-genomic (CON1), genotype 1b](Blight, et al., 2000, Science 290:1972) maintained as sub-confluent cultures on 96-well plates. Antiviral activity was determined by blot hybridization analysis of intracellular HCV RNA (normalized to the level of cellular B-actin RNA in each culture sample). Cytotoxicity was assessed by neutral red dye uptake in cultures maintained in parallel plates.
(§2) EC50, EC90, and CC50 values were calculated by linear regression analysis (MS EXCEL®, QUATTROPRO®) using data combined from all treated cultures Korba & Gerin, 1992, Antivir. Res. 19:55; Okuse, et al., 2005, Antivir. Res. 65:23). Standard deviations for EC50 and EC90 values were calculated from the standard errors generated by the regression analyses. […] The Selectivity index (S.I.) was calculated as CC50/EC50. Recombinant human interferon 2b (PBL laboratories, Inc.) was used as an assay control.
(§3) For each combination of agents, three concentration ratios, centered on the use of the compounds at equipotent antiviral concentrations, were used. A dilution series (six three-fold-concentration steps, beginning at the approximate EC90) was then generated with the concentration ratio of the two agents remaining the same in each dilution step. Toxicity analysis was performed as described above for the monotherapies. Analysis of drug interactions in the combination studies was determined by the use of the […] program (Biosoft, Inc., Cambridge, United Kingdom). This program evaluates synergy, additivity, or antagonism by use of several methodologies, including that of Chou and Talalay with a statistical analysis employing the Monte Carlo technique to provide confidence limits, fraction-affected-confidence interval (FA-CI) plots, isobolograms, and median-effect plots. (Belenkii, M. S. Schinazi, R. A method for the analysis of combination therapies with statistical analysis. Antiviral Res. 25, 11, 2005).

[3] = test system: HCV replicon cell line, AVA5; assay: as above; settings: Table 5, Compound 2 alone or in combination, genotype 1B
Experimental: as §1, §2, §3

[4] = In vitro cytotoxicity, HepG2; format: cell-based; settings: human, HepG2 cells
TA1535 = assay: In vitro bacterial mutagenicity assay (pre-incubation), strain TA1535; settings: for Number of revertants x1, x2, x3: individual plates
Experimental: (§4) Dispense 100 microliter aliquots of the appropriate bacterial cultures into sample tubes stored on ice. Dispense aliquots of the vehicle, positive controls or dose formulations into the appropriate sample tubes. 2 mL top Agar and HBT cap was added to the sample tube, inverted three times and poured into MG plate. The lid was replaced on the plate and left on a level surface to let the agar harden. The plates were incubated in an incubator for 48 to 72 h. The background lawn and count the number of revertants was checked for each plate.

TA98 = assay: In vitro bacterial mutagenicity assay (pre-incubation), strain TA98; settings: for Number of revertants x1, x2, x3: individual plates
Experimental: as §4

TA100 = assay: In vitro bacterial mutagenicity assay (pre-incubation), strain TA100; settings: for Number of revertants x1, x2, x3: individual plates
Experimental: as §4

WP2 uvrA = assay: In vitro bacterial mutagenicity assay (pre-incubation), strain WP2 uvrA; settings: for Number of revertants x1, x2, x3: individual plates
Experimental: as §4

[5] = TA1535, absence of S9, 50 μg/plate
[6] = TA1535, absence of S9, 158 μg/plate
[7] = TA1535, absence of S9, 500 μg/plate
[8] = TA1535, absence of S9, 1581 μg/plate
[9] = TA1535, absence of S9, 5000 μg/plate
[10] = TA1535, presence of S9, 50 μg/plate
[11] = TA1535, presence of S9, 158 μg/plate
[12] = TA1535, presence of S9, 500 μg/plate
[13] = TA1535, presence of S9, 1581 μg/plate
[14] = TA1535, presence of S9, 5000 μg/plate
[15] = TA98, absence of S9, 50 μg/plate
[16] = TA98, absence of S9, 158 μg/plate
[17] = TA98, absence of S9, 500 μg/plate
[18] = TA98, absence of S9, 1581 μg/plate
[19] = TA98, absence of S9, 5000 μg/plate
[20] = TA98, presence of S9, 50 μg/plate
[21] = TA98, presence of S9, 158 μg/plate
[22] = TA98, presence of S9, 500 μg/plate
[23] = TA98, presence of S9, 1581 μg/plate
[24] = TA98, presence of S9, 5000 μg/plate
[25] = TA100, absence of S9, 50 μg/plate
[26] = TA100, absence of S9, 158 μg/plate
[27] = TA100, absence of S9, 500 μg/plate
[28] = TA100, absence of S9, 1581 μg/plate
[29] = TA100, absence of S9, 5000 μg/plate
[30] = TA100, presence of S9, 50 μg/plate
[31] = TA100, presence of S9, 158 μg/plate
[32] = TA100, presence of S9, 500 μg/plate
[33] = TA100, presence of S9, 1581 μg/plate
[34] = TA100, presence of S9, 5000 μg/plate

Structure (SMILES): COC1C(OP(=O)(OC[C@H]2O[C@@H](n3cnc4c(N)ncnc43)CC2O)SCOC(=O)OC(C)C)[C@@H](CO)O[C@H]1n1ccc(=O)[nH]c1=O (stereo partly shown) [Compound 2, S-isopropylcarbonyloxymethyl thiophosphate (6k) of 3′dApsU2′OMe]
- pEC50 ([1]; read-out: EC50 HCV Type 1A): 5.66
- EC90 ([1]; read-out: EC90 HCV type 1A): 8 µM
- CC50 at 3 day [2]: > 100 µM
- CC50 [3]: > 100 µM
- CC50 [4]: > 100 µM
- Number of revertants mean (TA1535; [5]): 14
- Number of revertants x1, x2, x3 (TA1535; [5]): 10 and 15 and 16
- Number of revertants mean (TA1535; [6]): 23
- Number of revertants x1, x2, x3 (TA1535; [6]): 21 (2×) and 26
- Number of revertants mean (TA1535; [7]): 17
- Number of revertants x1, x2, x3 (TA1535; [7]): 15 and 20 and 17
- Number of revertants mean (TA1535; [8]): 16
- Number of revertants x1, x2, x3 (TA1535; [8]): 13 and 18 and 17
- Number of revertants mean (TA1535; [9]): 18
- Number of revertants x1, x2, x3 (TA1535; [9]): 18 (2×) and 17
- Number of revertants mean (TA1535; [10]): 19
- Number of revertants x1, x2, x3 (TA1535; [10]): 21 and 15 and 20
- Number of revertants mean (TA1535; [11]): 16
- Number of revertants x1, x2, x3 (TA1535; [11]): 11 and 20 and 16
- Number of revertants mean (TA1535; [12]): 17
- Number of revertants x1, x2, x3 (TA1535; [12]): 19 and 13 and 20
- Number of revertants mean (TA1535; [13]): 22
- Number of revertants x1, x2, x3 (TA1535; [13]): 27 and 21 and 17
- Number of revertants mean (TA1535; [14]): 17
- Number of revertants x1, x2, x3 (TA1535; [14]): 18 and 16 (2×)
- Number of revertants mean (TA98; [15]): 22
- Number of revertants x1, x2, x3 (TA98; [15]): 18 and 15 and 33
- Number of revertants mean (TA98; [16]): 27
- Number of revertants x1, x2, x3 (TA98; [16]): 28 (2×) and 25
- Number of revertants mean (TA98; [17]): 24
- Number of revertants x1, x2, x3 (TA98; [17]): 21 and 20 and 31
- Number of revertants mean (TA98; [18]): 25
- Number of revertants x1, x2, x3 (TA98; [18]): 24 and 18 and 33
- Number of revertants mean (TA98; [19]): 24
- Number of revertants x1, x2, x3 (TA98; [19]): 27 and 26 and 20
- Number of revertants mean (TA98; [20]): 45
- Number of revertants x1, x2, x3 (TA98; [20]): 43 and 39 and 53
- Number of revertants mean (TA98; [21]): 40
- Number of revertants x1, x2, x3 (TA98; [21]): 37 and 48 and 34
- Number of revertants mean (TA98; [22]): 39
- Number of revertants x1, x2, x3 (TA98; [22]): 31 and 40 and 46
- Number of revertants mean (TA98; [23]): 45
- Number of revertants x1, x2, x3 (TA98; [23]): 44 (2×) and 46
- Number of revertants mean (TA98; [24]): 44
- Number of revertants x1, x2, x3 (TA98; [24]): 53 and 36 and 43
- Number of revertants mean (TA100; [25]): 112
- Number of revertants x1, x2, x3 (TA100; [25]): 98 and 112 and 127
- Number of revertants mean (TA100; [26]): 121
- Number of revertants x1, x2, x3 (TA100; [26]): 110 and 133 and 119
- Number of revertants mean (TA100; [27]): 133
- Number of revertants x1, x2, x3 (TA100; [27]): 134 and 127 and 138
- Number of revertants mean (TA100; [28]): 113
- Number of revertants x1, x2, x3 (TA100; [28]): 122 and 107 and 109
- Number of revertants mean (TA100; [29]): 115
- Number of revertants x1, x2, x3 (TA100; [29]): 98 and 126 and 122
- Number of revertants mean (TA100; [30]): 107
- Number of revertants x1, x2, x3 (TA100; [30]): 111 and 109 and 100
- Number of revertants mean (TA100; [31]): 120
- Number of revertants x1, x2, x3 (TA100; [31]): 115 and 133 and 111
- Number of revertants mean (TA100; [32]): 126
- Number of revertants x1, x2, x3 (TA100; [32]): 134 and 137 and 108
- Number of revertants mean (TA100; [33]): 126
- Number of revertants x1, x2, x3 (TA100; [33]): 136 and 122 and 121
- Number of revertants mean (TA100; [34]): 126
- Number of revertants x1, x2, x3 (TA100; [34]): 122 and 130 and 126
- Number of revertants mean (WP2 uvrA; absence of S9, 50 μg/plate): 41
- Number of revertants x1, x2, x3 (WP2 uvrA; absence of S9, 50 μg/plate): 34 and 43 and 45
- Number of revertants mean (WP2 uvrA; absence of S9, 158 μg/plate): 42
- Number of revertants x1, x2, x3 (WP2 uvrA; absence of S9, 158 μg/plate): 49 and 44 and 33
- Number of revertants mean (WP2 uvrA; absence of S9, 500 μg/plate): 34
- Number of revertants x1, x2, x3 (WP2 uvrA; absence of S9, 500 μg/plate): 39 and 26 and 38
- Number of revertants mean (WP2 uvrA; absence of S9, 1581 μg/plate): 50
- Number of revertants x1, x2, x3 (WP2 uvrA; absence of S9, 1581 μg/plate): 44 and 56 and 51
- Number of revertants mean (WP2 uvrA; absence of S9, 5000 μg/plate): 52
- Number of revertants x1, x2, x3 (WP2 uvrA; absence of S9, 5000 μg/plate): 62 and 39 and 54
- Number of revertants mean (WP2 uvrA; presence of S9, 50 μg/plate): 44
- Number of revertants x1, x2, x3 (WP2 uvrA; presence of S9, 50 μg/plate): 48 and 43 and 42
- Number of revertants mean (WP2 uvrA; presence of S9, 158 μg/plate): 43
- Number of revertants x1, x2, x3 (WP2 uvrA; presence of S9, 158 μg/plate): 46 and 43 and 40
- Number of revertants mean (WP2 uvrA; presence of S9, 500 μg/plate): 41
- Number of revertants x1, x2, x3 (WP2 uvrA; presence of S9, 500 μg/plate): 36 and 46 and 40
- Number of revertants mean (WP2 uvrA; presence of S9, 1581 μg/plate): 47
- Number of revertants x1, x2, x3 (WP2 uvrA; presence of S9, 1581 μg/plate): 52 and 43 and 45
- Number of revertants mean (WP2 uvrA; presence of S9, 5000 μg/plate): 62
- Number of revertants x1, x2, x3 (WP2 uvrA; presence of S9, 5000 μg/plate): 61 and 60 and 65

Source: patent US8404651B2, “Compositions and methods for treating viral infections” (priority 2008, dated 2013)
